According to ChEMBL document CHEMBL4342465, “Lead Optimization and Avoidance of Reactive Metabolite Leading to PCO371, a Potent, Selective, and Orally Available Human Parathyroid Hormone Receptor 1 (hPTHR1) Agonist” (J Med Chem, 2020):
Blank lines part the entries; values can stand above or below the compound they belong to. The source made the active and inactive calls. No cut-off for these calls is given here.

What was measured:
[1] = target: T1, Parathyroid hormone/parathyroid hormone-related peptide receptor (Homo sapiens, UniProt Q03431); assay: Agonist activity at recombinant human PTHR1 expressed in pig LLC-PK1 cells assessed as increase in cAMP production measured after 20 mins by EIA; format: functional, cell-based
T1 sequence (Q03431 whole entry): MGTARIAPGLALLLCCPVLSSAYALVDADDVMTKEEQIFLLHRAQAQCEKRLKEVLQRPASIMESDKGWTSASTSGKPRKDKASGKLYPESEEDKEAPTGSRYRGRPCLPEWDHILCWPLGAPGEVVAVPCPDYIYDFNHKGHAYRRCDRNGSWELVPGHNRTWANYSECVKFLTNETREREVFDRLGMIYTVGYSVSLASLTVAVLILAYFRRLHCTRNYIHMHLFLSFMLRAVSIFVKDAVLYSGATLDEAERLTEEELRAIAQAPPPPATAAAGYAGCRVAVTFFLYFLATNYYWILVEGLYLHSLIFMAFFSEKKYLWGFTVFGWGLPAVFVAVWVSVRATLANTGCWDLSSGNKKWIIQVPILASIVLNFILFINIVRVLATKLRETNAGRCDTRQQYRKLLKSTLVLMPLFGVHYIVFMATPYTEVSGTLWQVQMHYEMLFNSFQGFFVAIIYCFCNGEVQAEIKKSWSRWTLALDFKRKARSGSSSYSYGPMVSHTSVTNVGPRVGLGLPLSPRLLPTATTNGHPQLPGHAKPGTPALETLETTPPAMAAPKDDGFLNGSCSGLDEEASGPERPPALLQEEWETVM

[2] = target: T2, Parathyroid hormone/parathyroid hormone-related peptide receptor (Homo sapiens) (UniProt Q03431); conditions: LLC-PK1
T2 sequence (whole entry): T1 sequence (Q03431 whole entry)

[3] = Drug metabolism in human liver microsomes assessed as hydrolysis by measuring compound 19 formation at 1 uM measured after 30 mins in presence of NADPH by LC-MS/MS analysis; format: ADME, Microsome; conditions: 0.5 h
[4] = Clearance in human liver microsomes at 1 uM measured after 30 mins in presence of NADPH by LC-MS/MS analysis; format: ADME, Microsome; conditions: read-out: CLH
[5] = AUC (infinity) in rat at 2 mg/kg, iv by LC-MS/MS analysis; format: ADME, organism-based; parameters: dose 2 mg/kg, route intravenous, time infinity; conditions: in vivo
[6] = Clearance in rat at 2 mg/kg, iv by LC-MS/MS analysis; format: ADME, organism-based; conditions: in vivo
[7] = Volume of distribution at steady state in rat at 2 mg/kg, iv by LC-MS/MS analysis; format: ADME, organism-based; conditions: in vivo, read-out: Vdss
[8] = Half life in rat at 2 mg/kg, iv by LC-MS/MS analysis; format: ADME, organism-based; conditions: in vivo
Rattus norvegicus [9] = assay: Anti-hypoparathyroidism activity in po dosed TPTX Crl:CD(SD) rat assessed as increase in serum calcium level measured up to 24 hrs by o-CPC method; format: functional, organism-based
Rattus norvegicus [10] = assay: Anti-hypoparathyroidism activity in po dosed TPTX Crl:CD(SD) rat assessed as decrease in serum phosphate level measured up to 24 hrs by xanthine oxidase based method; format: functional, organism-based
Rattus norvegicus [11] = assay: Anti-hypoparathyroidism activity in po dosed TPTX Crl:CD(SD) rat assessed as increase in serum calcium level by measuring serum calcium level at 30 mg/kg, po administered as single dose measured after 24 hrs by o-CPC method; format: functional
Rattus norvegicus [12] = assay: Anti-hypoparathyroidism activity in po dosed TPTX Crl:CD(SD) rat assessed as time required to show maximum increase in serum calcium level by o-CPC method; format: functional
Rattus norvegicus [13] = assay: Anti-hypoparathyroidism activity in po dosed TPTX Crl:CD(SD) rat assessed as time required to show minimum decrease in serum phosphate level by xanthine oxidase based method; format: functional
Rattus norvegicus [14] = assay: Anti-hypoparathyroidism activity in sc dosed TPTX Crl:CD(SD) rat assessed as increase in serum calcium level measured up to 24 hrs by o-CPC method; format: functional, organism-based
[15] = Drug metabolism in human liver microsomes assessed as oxidation by measuring compound 18 formation at 1 uM measured after 30 mins in presence of NADPH by LC-MS/MS analysis; format: ADME, Microsome; conditions: 0.5 h
[16] = Drug metabolism in human liver microsomes assessed as compound 17 formation at 1 uM measured after 30 mins in presence of NADPH by LC-MS/MS analysis; format: ADME, Microsome; conditions: 0.5 h

EC50 [1]: > 100 µM
EC20 [2]: > 100 µM
Structure (SMILES): Cc1cc(N2CC(=O)NC2=O)cc(C)c1CCS(=O)(=O)N1CCC2(CC1)N=C(c1ccc(OC(F)(F)F)cc1)NC2=O

Drug metabolism [3]: Metabolite_Detected
Structure (SMILES): Cc1cc(N)cc(CO)c1C(O)CS(=O)(=O)N1CCC2(CC1)N=C([C@H]1CC[C@H](C)CC1)NC2=O (some centres undefined)

microsomal CLint at 1 µM [4]: 71 µL/min/mg
Structure (SMILES): Cc1cc(N2C(=O)NC(=O)C2C)cc(C)c1CCS(=O)(=O)N1CCC2(CC1)N=C(c1ccc(OC(F)(F)F)cc1)NC2=O (centres undefined)

microsomal CLint at 1 µM [4]: 30 µL/min/mg
AUC(0-inf) [5]: 1100 ng·h/mL
clearance [6]: 30.5 mL/min/kg
Vd [7]: 3.04 L/kg
half-life [8]: 1.3 h
Activity (Rattus norvegicus [10]): Dose-dependent effect
EC20 [2]: 1.1 µM
Structure (SMILES): Cc1cc(N2C(=O)NC(=O)C2(C)C)cc(C)c1CCS(=O)(=O)N1CCC2(CC1)N=C(c1ccc(OC(F)(F)F)cc1)NC2=O [PCO-371]
Activity (Rattus norvegicus [9]): Dose-dependent effect
Activity (Rattus norvegicus [11]): 8.8 to 10.4 mg/dL
Time (Rattus norvegicus [12]): 10 h
Time (Rattus norvegicus [13]): 10 h

microsomal CLint at 1 µM [4]: 35 µL/min/mg
Structure (SMILES): Cc1cc(N2C(=O)NC(=O)C23CCCC3)cc(C)c1CCS(=O)(=O)N1CCC2(CC1)N=C(c1ccc(OC(F)(F)F)cc1)NC2=O

microsomal CLint at 1 µM [4]: 48 µL/min/mg
Structure (SMILES): Cc1cc(N(C)C(N)=O)cc(C)c1CCS(=O)(=O)N1CCC2(CC1)N=C(c1ccc(OC(F)(F)F)cc1)NC2=O

EC50 [1]: 32 µM
microsomal CLint at 1 µM [4]: 53 µL/min/mg
EC20 [2]: 6 µM
Structure (SMILES): Cc1cc(N2C(=O)CNC2=O)cc(C)c1CCS(=O)(=O)N1CCC2(CC1)N=C([C@H]1CC[C@H](C)CC1)NC2=O

Drug metabolism [16]: Metabolite_Detected
Activity (Rattus norvegicus [10]): Dose-dependent effect
Structure (SMILES): Cc1cc(N(C)C(N)=O)cc(C)c1CCS(=O)(=O)N1CCC2(CC1)N=C([C@H]1CC[C@H](C)CC1)NC2=O
Activity (Rattus norvegicus [9]): Dose-dependent effect

Further lines, the compound ahead of its results:

Structure (SMILES): Cc1cc(N2C(=O)CNC2=O)cc(C)c1CCS(=O)(=O)N1CCC2(CC1)N=C(c1ccc(OC(F)(F)F)cc1)NC2=O
microsomal CLint at 1 µM [4]: 110 µL/min/mg

Structure (SMILES): CC[C@H](C)[C@H](NC(=O)[C@H](CCC(=O)O)NC(=O)[C@H](CO)NC(=O)[C@@H](NC(=O)[C@@H](N)CO)C(C)C)C(=O)N[C@@H](CCC(N)=O)C(=O)N[C@@H](CC(C)C)C(=O)N[C@@H](CCSC)C(=O)NC(Cc1cnc[nH]1)C(=O)N[C@@H](CC(N)=O)C(=O)N[C@@H](CC(C)C)C(=O)NCC(=O)N[C@@H](CCCCN)C(=O)N[C@@H](Cc1cnc[nH]1)C(=O)N[C@@H](CC(C)C)C(=O)N[C@@H](CC(N)=O)C(=O)N[C@@H](CO)C(=O)NC(CCSC)C(=O)N[C@@H](CCC(=O)O)C(=O)N[C@@H](CCCNC(=N)N)C(=O)N[C@H](C(=O)N[C@@H](CCC(=O)O)C(=O)N[C@@H](Cc1c[nH]c2ccccc12)C(=O)N[C@@H](CC(C)C)C(=O)N[C@@H](CCCNC(=N)N)C(=O)N[C@@H](CCCCN)C(=O)N[C@@H](CCCCN)C(=O)N[C@@H](CC(C)C)C(=O)N[C@@H](CCC(N)=O)C(=O)N[C@@H](CC(=O)O)C(=O)N[C@H](C(=O)N[C@@H](Cc1cnc[nH]1)C(=O)N[C@@H](CC(N)=O)C(=O)N[C@@H](Cc1ccccc1)C(=O)O)C(C)C)C(C)C (some centres undefined)
Activity (Rattus norvegicus [14]): Active
EC20 [2]: 0.0006 µM

Structure (SMILES): CCC1(CC)C(=O)NC(=O)N1c1cc(C)c(CCS(=O)(=O)N2CCC3(CC2)N=C(c2ccc(OC(F)(F)F)cc2)NC3=O)c(C)c1
EC50 [1]: > 100 µM
microsomal CLint at 1 µM [4]: 29 µL/min/mg
EC20 [2]: 7.4 µM

Structure (SMILES): Cc1cc(N)cc(C)c1CCS(=O)(=O)N1CCC2(CC1)N=C([C@H]1CC[C@H](C)CC1)NC2=O
Drug metabolism [15]: Metabolite_Detected

Structure (SMILES): CC[C@H]1CC[C@H](C2=NC3(CCN(S(=O)(=O)CCc4c(C)cc(N(C)C(N)=O)cc4C)CC3)C(=O)N2)CC1
EC50 [1]: 33 µM
microsomal CLint at 1 µM [4]: 170 µL/min/mg
EC20 [2]: 2.2 µM

Structure (SMILES): Cc1cc(N2C(=O)N(C)C(=O)C2(C)C)cc(C)c1CCS(=O)(=O)N1CCC2(CC1)N=C(c1ccc(OC(F)(F)F)cc1)NC2=O
microsomal CLint at 1 µM [4]: 330 µL/min/mg
